The results in this text go back to patent publication EP1978972B1, “USE OF ALKYLGLUCOSIDE ESTERS AS BETA-DEFENSIN INDUCERS” (Pierre Fabre Dermo-Cosmétique, priority 2006, dated 2007).

This test relates to hBD-2. The test can be described thus: Immunohistochemistry of hBD-2 peptide in skin explants. The test is classed as cell-based, human. As to conditions: skin explant, qualitative. The protocol: Les échantillons inclus dans la résine Tissue Tek® sont coupés à froid (température de la chambre à -25°C et la température du porte-objet à - 28°C) à l'aide d'un cryostat (Leica CM 3050s, Nussloch). Les cryocoupes d'une épaisseur de 5 µm sont récupérées sur des lames porte-objet prétraitées, puis mises à sécher environ 2 h à température ambiante et stockées à -20°C pour une utilisation ultérieure. Avant de réaliser l'immuno-marquage, les coupes sont fixées à l'acétone à -20°C pendant 10 min, séchées et conservées à -20°C. Lors d'une première étape, les coupes sont hydratées puis incubées avec les anticorps primaires dirigés contre les peptides d'intérêt dilués dans du PBS. Les anticorps primaires utilisés sont les suivants : • Goat Anti-human BD-2 (500-P161G, Peprotech Inc) dilué au 1/50^e • Rabbit Anti-human defensin-3 (AB3478, Chemicon international) dilué au 1/1000^e • Rabbit Anti-human LL37 (G-075-06, Phoenix Pharmaceuticals Inc) dilué au 1/50^e
Pour révéler le complexe Antigène-Anticorps, le kit DAKO LSAB® (DAKO Corporation) est utilisé selon les recommandations du fournisseur. La révélation est réalisée à l'aide d'un substrat de la péroxydase : la 3,3'diaminobenzidine (DAB) (DAKO Corporation). […]

With laurate de butylglucoside [αβ-LBG brut], the “production du peptide hBD-2 dans les couches supérieures de l'épiderme” value is reported as “stimulation de la production” (systemic, 24 h) and “stimulation de la production” (topical).
